Source: patent US20190307664A1, “METHOD AND COSMETIC COMPOSITION FOR ENHANCED TRANSDERMAL DELIVERY OF ALKYL SUBSTITUTED RESORCINOL” (CONOPCO, INC., D/B/A UNILEVER, priority 2016, published 2019)

Tested on: HeMnDP melanocyte monoculture
Test: Melanin content assay in melanocyte monoculture (after Calcein-AM viability assay)
Format: cell-based
Settings: 72 hours
Procedure: All samples were analysed to determine the extent of their ability to bring about skin lightening by checking the cell viability and melanin content assay. Set Up of Cultures Involved the Following Steps: • ([…] per well (single wells/treatment) in 24-well Nunc plates on Day-0 were seeded to establish a melanocyte monoculture system. • (ii) The volume of media per well was limited to 1 ml of Melanocyte Growth Media (MGM) • (iii) 24 hours later, fresh media containing actives was added again. At this stage also, 1 ml of MGM was used. • (iv) Plates were incubated for 72 hours at 37° C. in a CO2 incubator. • (v) At the end, the plates were sent for Calcein assay, described hereinafter, followed by melanin content estimation. Calcein-AM Viability Assay • (i) The spent media was removed from each well of a 24-well plate and rinsed once with 400 μl of 1×PBS-Ca-Mg (see preparation below), including wells without cells (Control wells). • (ii) One μM Calcein-AM (working stock) in 1×PBS-Ca-Mg from 1 mM stock (e.g. 10 μl of 1 mM Calcein stock in 100% DMSO in 10 ml of 1×PBS-Ca-Mg) was prepared. About 400 μl of Calcein-AM working stock solution was added to each well, including the controls cells. • (iii) The plates were covered with aluminum foil and were incubated for 30 minutes in a CO2 incubator. • (iv) In the meantime, fluorescence was measured (excitation at 490 nm and emission at 520 nm) using TECAN® instrument after 30 minutes of dye incubation. • (v) After reading the plates, the buffer containing Calcein was removed and melanin content assay was then carried out. […] The % inhibition was then calculated for each case. Higher values of % inhibition indicate an active ingredient's potential to serve as a skin lightening agent. The tests of Example 2 were repeated with isonicotinamide instead of picolinamide.

NC(=O)c1ccncc1 [Ex-I, Isonicotinamide]
Inhibition in melanin synthesis (Isonicotinamide 122 μg): −16% | Inhibition in melanin synthesis (Isonicotinamide 1220 μg): 10%

CCCCCCc1ccc(O)cc1O [Ex-B, 4-hexyl resorcinol]
Inhibition in melanin synthesis (4-hexyl Resorcinol 0.192 μg, Example 2): 3% | Inhibition in melanin synthesis (4-hexyl Resorcinol 0.192 μg, Example 3): 3% | Inhibition in melanin synthesis (4-hexyl Resorcinol 1.92 μg, Example 2): 31% | Inhibition in melanin synthesis (4-hexyl Resorcinol 1.92 μg, Example 3): 31%

NC(=O)c1ccccn1 [Ex-D, Picolinamide]
Inhibition in melanin synthesis (picolinamide 122 μg): 1% | Inhibition in melanin synthesis (picolinamide 1220 μg): 27%
